# Experiments:
# [1] = test system: C57BL/6 mouse; assay: Model of regrowth of the body hair in the C57BL/6 mouse; assay type: in vivo; details: for Regrowth of the body hair versus ethanol ΔAUC (D 1-D 22): topical 50 μl
# From the text: The C57BU6 mice are each a particularly useful model for the study of hair growth:
# In C57BU6 mice, the fur is black. In the trunk of the animals, the melanocytes are present solely in the hair follicles and the production of pigment is strictly correlated with the anagen phase of the hair cycle (Slominski A. and Paus R., J. Invest. Dermatol., 10, 90S-97S, 1993).
# In young mice, the hair cycles are not in phase throughout the body but are synchronized in a region according to a rostro-caudal wave (Hale P. A. and Ebling F. J., J. Exp. Zool., 191, 49-62). At 42 days, the hair follicles of the dorsal region enter the telogen phase (Chase H. B. Physiol. Rev., 34, 113-126, 195).
# Thus, after clipping and shaving the backs of C57BU6 mice aged 42 days, the regrowth can be easily visualized before the hair shafts appear at the surface by the grey appearance which the skin assumes. The delay in appearance of the grey color of the skin and the delay in appearance of the hair shafts after clipping and shaving represent criteria which give an account of the rate of entry of the hair follicle into the anagen phase and the rate of growth of the hair shaft. These two criteria will thus be used to evaluate the activity on the hair growth of the compounds tested.
# The male C57BU6 mice are aged 42 days at the beginning of the study. The groups are formed of 10 animals.
# On day D0, the backs of the animals are clipped with Minicut clippers equipped with a shoe (retention of 4 mm of hair shaft) and shaved with a Braun razor.
# The study is carried out over 21 days.
# The hair growth is evaluated according to the criteria defined in:
# Minoxidil in solution in ethanol at 2.5% is used as positive control of the regrowth of the body hair.
# Travoprost in its isopropyl ester form is used in solution in ethanol at 0.01%.
# The travoprost, the minoxidil and the carrier are administered by the topical route using a pipette at the rate of 50 μl per application.
# The minoxidil and the carrier are administered in repeated daily fashion from day 1 to day 21 of the study. Two different treatments are carried out with the travoprost: a first group receiving a single administration on day 1 of the study and a second group receiving five repeated daily and consecutive administrations from day 1 to day 5 of the study.
# The following calculations are carried out: • Mean±SEM of the scores per day for each group treated. • Areas under the curve (AUC) of the regrowth scores per animal from D1 to D22. • Mean±SEM of the AUC values per treatment group. • Percentage of increase in the AUC values for each treated group versus the carrier group.
# The AUC is obtained by summing the areas of the rectangles from the first and the final day of the study. The different treatment groups are compared with the carrier group with regard to this parameter by means of a Student's t-test.
# [2] = test system: human hair follicles; assay: Human hair follicles kept alive: elongation of the hair shaft in organ culture; assay type: cell-based; details: 1 μM in DMSO; for Elongation at D 7: cumulative from D0, mean
# Description: Human hair follicles are dissected while keeping the bulb and the connective and epithelial sheaths intact to be cultured in an appropriate medium which makes it possible to provide for the growth of the follicle ex vivo while keeping its structure intact in the growth or anagen phase (Stenn, Ann. N.Y. Acad. Sci., 1991, Dec. 26, 642, xi-xiii). The growth of the hair follicles in vitro is then evaluated using the measurement of elongation of the […].
# Human hair follicles of “terminal” type are isolated from a skin sample resulting from facial surgery (lifting). For this, the skin is cut into pieces of approximately 5×5 mm. The hypodermis is separated from the dermis using a scalpel blade. The hair follicles are isolated from the hypodermal part under a binocular magnifier using fine forceps. Only the hair follicles in the growth phase with a bulb and intact connective and epithelial sheaths are retained for study.
# The hair follicles thus isolated are incubated at 37° C. in a humid atmosphere (5% CO2 and 95% air) and are cultured individually in suspension for 7 days in William's E medium supplemented with 2 mM of L-glutamine, 10 μg/ml of insulin, 10 ng/ml of hydrocortisone and 1% of antibiotics/antimitotics. The culture medium is replaced every 2 or 3 days.
# The travoprost in its acid form is taken up in DMSO at a concentration of 10^−2M and stored at −20° C. until used.
# The surviving hair follicles are treated with the DMSO carrier at a final concentration of 0.1% or with the travoprost acid at a concentration of 1 μM in DMSO (final DMSO concentration also at 0.1%). For each condition, 22 hair follicles are treated individually subsequent to culturing at D0. In the case of a repeated treatment, the travoprost acid at 1 μM in DMSO is replaced at the time of the change in medium, this being done for 7 days. In the case of a single treatment, the travoprost acid at 1 μM DMSO is added to the culture medium just once in the culturing.
# The growth of the hair follicles is determined by the measurement of the elongation of the hair shaft from day D0 to day D7. The elongation of the hair shaft is analyzed using Tina image analysis software. The measurements are carried out on hair follicles isolated at days D0, D3, D5 and D7.
# The mean post-D0 length (by definition: the mean of the lengths measured on the days following D0) is considered:
# The mean post-D0 length is a function: • of the initial length at D0 • of the treatment group • of other factors related to technological or biological variability.
# In this study example, 15 hair follicles (all groups mixed up) out of 66 cultured were discarded.
# It is assumed that the mean post-D0 length is the sum of four components:
# Some measurements, referred to as “aberrant” measurements, can have a highly disruptive effect on the estimation of the effects of the model. A robust ANOVA method is applied with regard to these measurements: “LTS” (Least Trimmed Squares). The principle of the LTS method is as follows: • 1. A definition is made at the start of a fixed proportion p0 of observations which it is desired to ignore in the estimation of the effects (p0=10%) among all the observations present independently of the treatment (observations of the entire study). The corresponding number of observations is denoted n0. • 2. n0 points are selected at random and excluded from the estimation process. • 3. The parameters (effects) of the model are estimated. • 4. Among the observations, excluded and non-excluded, the n0 observations which are the least well predicted by the model are identified. • 5. The n0 least well predicted observations found in stage 4, are, in their turn, excluded from the estimation process. • 6. Stage 3 (estimation) is reverted to until the observations excluded in stage 5 remain unchanged (“convergence”).
# The LTS process is repeated a large number of times (200) starting from different random selections. […]
# [3] = single treatment at the time of culturing
smiles,measurement,setting,value
"Nc1cc(N2CCCCC2)nc(N)[n+]1[O-] [Minoxidil, 2,4-diamino-6-piperidinopyrimidine 3-oxide]",Regrowth of the body hair versus ethanol ΔAUC (D 1-D 22),"[1]; 2.5% in ethanol, repeated daily administrations (21 days)",+34%
same,Regrowth of the body hair versus ethanol ΔAUC (D 1-D 22),"[1]; 2.5% in ethanol, repeated daily administrations (21 days), listed as minoxidil",30%
same,regrowth of the body hair in comparison with the carrier,"[1]; 2.5%, repeated daily administration for 21 days",accelerates the regrowth of the body hair
"CC(C)OC(=O)CCC/C=C\C[C@@H]1[C@@H](/C=C/[C@@H](O)COc2cccc(C(F)(F)F)c2)[C@H](O)C[C@@H]1O [Travoprost, propane-2-yl (Z)-7-[(1R,2R,3R,5S)-3,5-dihydroxy-2-[(1E,3R)-3-hydroxy-4-[3-(trifluoromethyl)phenoxy]but-1-enyl]cyclopentyl]hept-5-enoate]",Regrowth of the body hair versus ethanol ΔAUC (D 1-D 22),"[1]; 0.01% in ethanol, repeated daily administrations (5 days)",+7%
same,Regrowth of the body hair versus ethanol ΔAUC (D 1-D 22),"[1]; 0.01% in ethanol, single administration on day 1",+31%
same,Regrowth of the body hair versus ethanol ΔAUC (D 1-D 22),"[1]; 0.01% in ethanol, single administration on day 1, listed as travoprost",31%
same,regrowth of the body hair in comparison with the carrier,"[1]; 0.01%, repeated daily and consecutive administrations for 5 days",do not accelerate the regrowth of the body hairs
same,regrowth of the body hair in comparison with the carrier,"[1]; 0.01%, single administration",significantly accelerates the regrowth of the body hair
same,AUC (D 0-D 7) of hair shaft elongation,[2]; repeated treatment during 7 days,5.82
same,Elongation at D 7,[2]; repeated treatment during 7 days of culturing,1.23 mm
same,AUC (D 0-D 7) of hair shaft elongation,[2]; [3],5.83
same,Elongation at D 7,[2]; [3],1.27 mm
O=C(O)CCC/C=C\C[C@@H]1[C@@H](/C=C/[C@@H](O)COc2cccc(C(F)(F)F)c2)[C@H](O)C[C@@H]1O [travoprost acid],elongation in the hair shaft compared with carrier DMSO,[2]; single treatment,greater than that obtained with the carrier DMSO
same,time at which the effect on elongation appears,[2]; single treatment,from the third day of treatment

# From patent publication US8980948B2, “Topical application of travoprost for combating hair loss” (Galderma Research & Development, priority 2007, dated 2015)
